# What was measured:
# hCX3CR1 [1] = biological target: T1, hCX3CR1 (Homo sapiens, UniProt P49238); experiment: ChAMPion assay (CHO ChAMPion/CX3CR1 K1.6, cAMP/CNG channel, photoprotein luminescence); assay type: cell-based; parameters: expressed in transfected cells; stably expresses a Ca2+ sensitive photo-protein; settings: ChAMPion assay, CHO ChAMPion/CX3CR1 K1.6, Forskolin 3 μM; read-out: hCX3CR1 agonism EC50
# T1 sequence (P49238 1-355): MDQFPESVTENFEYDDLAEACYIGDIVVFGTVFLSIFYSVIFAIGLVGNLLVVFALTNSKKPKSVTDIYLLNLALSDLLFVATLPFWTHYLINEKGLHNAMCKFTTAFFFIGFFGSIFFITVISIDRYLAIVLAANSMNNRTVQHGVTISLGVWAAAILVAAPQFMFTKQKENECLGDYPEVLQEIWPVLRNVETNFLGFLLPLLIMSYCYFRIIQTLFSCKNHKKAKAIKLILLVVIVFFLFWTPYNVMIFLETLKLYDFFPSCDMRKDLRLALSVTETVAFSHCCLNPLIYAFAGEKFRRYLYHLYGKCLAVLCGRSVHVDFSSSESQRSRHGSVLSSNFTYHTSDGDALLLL
# hCX3CR1 [2] = biological target: T1, hCX3CR1; experiment: Ga16 assay, CX3CR1 agonism, Ca2+ sensitive photo-protein readout (FLIPRTETRA); assay type: cell-based; parameters: expressed in transfected cells; stably expresses a Ca2+ sensitive photo-protein; settings: human CX3CR1 cell line
# Outline: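 Cells expressing human, mouse or rat CX3CR1 with a stably expressed Ca2+-sensitive photoprotein were loaded with 10 μM coelenterazine in tyrode buffer pH 7.4 for 3 h at room temperature. Agonist-mode luminescence kinetics were recorded for 90 s after compound injection on FLIPRTETRA. Dose-response runs were done in quadruplicate, with fractalkine as the reference agonist.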
smiles,measurement,setting,value
"O=C(NCC1(CN2CCCC2)CC(O)C1)c1cc2c(s1)CCCCCC2 (stereo not shown) [Example 32, N-[[3-hydroxy-1-(pyrrolidin-1-ylmethyl)cyclobutyl]methyl]-4,5,6,7,8,9-hexahydrocycloocta[b]thiophene-2-carboxamide]",EC50,hCX3CR1 [1],0.64 µM
same,EC50,hCX3CR1 [2],9.1 µM
"CN(C)CC1(CNC(=O)c2cc3c(s2)CCCCCC3)CC(O)C1 (stereo not shown) [Example 31, N-[[1-[(dimethylamino)methyl]-3-hydroxycyclobutyl]methyl]-4,5,6,7,8,9-hexahydrocycloocta[b]thiophene-2-carboxamide]",EC50,hCX3CR1 [1],0.89 µM
same,EC50,hCX3CR1 [2],9.4 µM
"CN(C)CC1(CNC(=O)c2cc3c(s2)CCCCCC3)CCC1 [Example 23, N-[[1-[(dimethylamino)methyl]cyclobutyl]methyl]-4,5,6,7,8,9-hexahydrocycloocta[b]thiophene-2-carboxamide]",EC50,hCX3CR1 [1],1.4 µM
same,EC50,hCX3CR1 [2],10.5 µM
"CN(C)CC(C)(C)CNC(=O)c1cc2c(s1)CCCCCC2 [Example 70, N-[3-(dimethylamino)-2,2-dimethylpropyl]-4,5,6,7,8,9-hexahydrocycloocta[b]thiophene-2-carboxamide]",EC50,hCX3CR1 [1],3.1 µM
same,EC50,hCX3CR1 [2],17 µM
"CN(C)CC1(CNC(=O)c2cc3c(s2)CCCCCC3)CCCC1 [Example 2, N-[[1-[(dimethylamino)methyl]cyclopentyl]methyl]-4,5,6,7,8,9-hexahydrocycloocta[b]thiophene-2-carboxamide]",EC50,hCX3CR1 [1],1.3 µM
same,EC50,hCX3CR1 [2],9.3 µM
"O=C(NCC1(CN2CCCC2)CCC1)c1cc2c(s1)CCCCCC2 [Example 21, N-[[1-(pyrrolidin-1-ylmethyl)cyclobutyl]methyl]-4,5,6,7,8,9-hexahydrocycloocta[b]thiophene-2-carboxamide]",EC50,hCX3CR1 [1],4.4 µM
same,EC50,hCX3CR1 [2],6 µM
"O=C(NCC1(CN2CCCC(O)C2)CCCC1)c1cc2c(s1)CCCCCC2 (stereo not shown) [Example 27, N-[[1-[(3-hydroxypiperidin-1-yl)methyl]cyclopentyl]methyl]-4,5,6,7,8,9-hexahydrocycloocta[b]thiophene-2-carboxamide]",EC50,hCX3CR1 [1],13.1 µM
same,EC50,hCX3CR1 [2],11.3 µM
"CN(CCO)CC1(CNC(=O)c2cc3c(s2)CCCCCC3)CCC1 [Example 30, N-[[1-[[2-hydroxyethyl(methyl)amino]methyl]cyclobutyl]methyl]-4,5,6,7,8,9-hexahydrocycloocta[b]thiophene-2-carboxamide]",EC50,hCX3CR1 [1],0.6 µM
same,EC50,hCX3CR1 [2],10.2 µM
"CC(C)(CNC(=O)c1cc2c(s1)CCCCCC2)CN1CCCC1 [Example 1, N-(2,2-dimethyl-3-pyrrolidin-1-ylpropyl)-4,5,6,7,8,9-hexahydrocycloocta[b]thiophene-2-carboxamide]",EC50,hCX3CR1 [1],2.1 µM
same,EC50,hCX3CR1 [2],11.5 µM
"O=C(NCC1(CN2CCCCC2)CCCC1)c1cc2c(s1)CCCCCC2 [Example 15, N-[[1-(piperidin-1-ylmethyl)cyclopentyl]methyl]-4,5,6,7,8,9-hexahydrocycloocta[b]thiophene-2-carboxamide]",EC50,hCX3CR1 [1],2.7 µM
same,EC50,hCX3CR1 [2],19.3 µM
"O=C(NCC1(CN2CCC(O)C2)CCCC1)c1cc2c(s1)CCCCCC2 (racemic) [Example 25, N-[[1-[(3-hydroxypyrrolidin-1-yl)methyl]cyclopentyl]methyl]-4,5,6,7,8,9-hexahydrocycloocta[b]thiophene-2-carboxamide]",EC50,hCX3CR1 [1],0.7 µM
same,EC50,hCX3CR1 [2],10.5 µM
"O=C(NCC1(CN2CCC(O)CC2)CCCC1)c1cc2c(s1)CCCCCC2 [Example 28, N-[[1-[(4-hydroxypiperidin-1-yl)methyl]cyclopentyl]methyl]-4,5,6,7,8,9-hexahydrocycloocta[b]thiophene-2-carboxamide]",EC50,hCX3CR1 [1],0.79 µM
same,EC50,hCX3CR1 [2],8.2 µM
"CC(C)(CNC(=O)c1cc2c(s1)CCCCCC2)CN1CCCCC1 [Example 13, N-(2,2-dimethyl-3-piperidin-1-ylpropyl)-4,5,6,7,8,9-hexahydrocycloocta[b]thiophene-2-carboxamide]",EC50,hCX3CR1 [1],2.2 µM
same,EC50,hCX3CR1 [2],12.3 µM
"O=C(NCC1(CN2CCCC2)CCCC1)c1cc2c(s1)CCCCCC2 [Example 5, N-[[1-(pyrrolidin-1-ylmethyl)cyclopentyl]methyl]-4,5,6,7,8,9-hexahydrocycloocta[b]thiophene-2-carboxamide]",EC50,hCX3CR1 [1],1.8 µM
same,EC50,hCX3CR1 [2],8.4 µM

# — patent US12258337B2, “Bicyclic CX3CR1 receptor agonists” (Board of Regents, The University of Texas System, priority 2019, dated 2025)
